Activity calls are given as the source filed them. The calls are words filed in the database; no cut-off is given here.
What was measured:
Format in all cases: cell-based
[1] = biological target: T1, 5-hydroxytryptamine receptor 3A (Homo sapiens) (UniProt P46098); assay: Binding affinity to human 5HT3A expressed in COS7 cells at 100 nM after 1 hr by fluorescence microscopy; conditions: COS-7
T1 sequence (whole entry): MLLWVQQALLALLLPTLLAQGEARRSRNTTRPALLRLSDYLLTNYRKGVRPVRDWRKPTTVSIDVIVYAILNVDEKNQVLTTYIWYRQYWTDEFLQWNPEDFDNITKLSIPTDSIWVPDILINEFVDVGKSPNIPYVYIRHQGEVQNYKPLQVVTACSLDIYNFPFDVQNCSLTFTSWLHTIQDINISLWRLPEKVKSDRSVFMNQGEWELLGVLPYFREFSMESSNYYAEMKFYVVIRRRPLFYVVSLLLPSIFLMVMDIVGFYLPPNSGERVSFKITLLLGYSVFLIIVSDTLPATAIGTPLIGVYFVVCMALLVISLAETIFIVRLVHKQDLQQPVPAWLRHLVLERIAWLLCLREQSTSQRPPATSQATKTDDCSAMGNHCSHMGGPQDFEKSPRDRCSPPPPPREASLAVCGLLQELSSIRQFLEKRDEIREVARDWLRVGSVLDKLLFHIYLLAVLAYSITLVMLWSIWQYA

[2] = biological target: T1, 5-hydroxytryptamine receptor 3A (Homo sapiens); assay: Binding affinity to human 5HT3A expressed in COS7 cells at 100 nM after 1 hr by fluorescence microscopy in presence of 10 uM ondansetron; conditions: COS-7
[3] = biological target: T2, 5-hydroxytryptamine receptor 3A (Homo sapiens, UniProt P46098); assay: Displacement of [3H]granisetron from human 5HT3A expressed in HEK293 cells after 1 hr by scintillation counting
T2 sequence (P46098 whole entry): T1 sequence (whole entry)

Activity [1]	Activity [2]	SMILES	Ki [3]
Active	Active	CC1=CC(C)=[N+]2C1=C(CCCOC(=O)CCCn1nc(C(=O)N[C@@H]3C[C@H]4CCC[C@@H](C3)N4C)c3ccccc31)c1c(C)cc(C)n1[B-]2(F)F	–
inactive	–	CN1[C@@H]2CCC[C@H]1C[C@H](NC(=O)c1nn(CCCNc3ccc([N+](=O)[O-])c4nonc34)c3ccccc13)C2	–
Active	inactive	CN1[C@@H]2CCC[C@H]1C[C@H](NC(=O)c1nn(CCCNC(=S)Nc3ccc(-c4c5ccc(=O)cc-5oc5cc(O)ccc45)c(C(=O)O)c3)c3ccccc13)C2	–
–	–	CN1[C@@H]2CCC[C@H]1C[C@H](NC(=O)c1nn(CCCCNc3ccc([N+](=O)[O-])c4nonc34)c3ccccc13)C2	Not Active
inactive	–	CCN(CC)c1ccc2cc(C(=O)NCCOc3cccc4c(C(=O)N[C@@H]5C[C@H]6CCC[C@@H](C5)N6C)nn(C)c34)c(=O)oc2c1	–
Active	inactive	CN1[C@@H]2CCC[C@H]1C[C@H](NC(=O)c1nn(CCCCNC(=S)Nc3ccc(-c4c5ccc(=O)cc-5oc5cc(O)ccc45)c(C(=O)O)c3)c3ccccc13)C2	–
inactive	–	CN(C)c1cccc2c(S(=O)(=O)NCCCn3nc(C(=O)N[C@H]4C[C@H]5CCC[C@@H](C4)N5C)c4ccccc43)cccc12	–

SMILES	Activity [1]	Activity [2]	Ki [3]
CCN(CC)c1ccc2cc(C(=O)NCCCCn3nc(C(=O)N[C@@H]4C[C@H]5CCC[C@@H](C4)N5C)c4ccccc43)c(=O)oc2c1	inactive	–	–

From ChEMBL document CHEMBL1944572, “High-affinity fluorescent ligands for the 5-HT(3) receptor” (Bioorg Med Chem Lett, 2012)
